Laboratory results: patent US9913792B2, “Methods of regulating skin health and appearance with a combination of flavonoid and vitamin B3” (The Procter & Gamble Company, priority 2014, dated 2018)
Several values for one entry are separate records, joined by “and”; a condition that tells them apart may be missing. Equal values may be shown once.

Tests used:
[1] = system: human keratinocytes; assay: Intracellular ATP levels in keratinocytes stressed with H2O2 (ATP Glo luminescence); format: cell-based; conditions: for ATP: luminescent counts; for % Control: ATP
Description: The effects of a flavonoid compound, a vitamin B3 compound, a hydrolyzed silk protein and a combination thereof, on intracellular ATP levels were assessed. Keratinocytes were cultured in T150 flasks in EpiLife® medium (MEPICFPRF500, Life Technologies, Grand Island, N.Y.) supplemented with human keratinocyte growth supplement (S-001-5, Life Technologies) and 1% penicillin/streptomycin (15140-122, Life Technologies). When the keratinocytes reached about 70% confluency, they were plated on 96-well plates at a density of 20,000 cells/well. The plates were incubated for 24 hours before the experimental stressor (H2O2) and treatment (niacinamide and/or GSS, Crosilk™ 1000, Crosilk™ Liquid, or HerbEx Silk Peptides) were applied.
The 96-well plate was divided into groups of wells in which (1) no stressor or treatment was applied, (2) stressor was applied but no treatment, and (3) stressor and treatment were applied. For the no stressor or treatment group, the culture medium was simply refreshed. In combination experiments, stressor and two treatments were applied. […] The plates were returned to the CO2 incubator for 90 minutes before ATP was measured.
ATP was measured by removing the media from all treatment groups and controls and replacing the media with ATP Glo® reagent (Promega, Madison, Wis.) per the manufacturer's instructions. After 10 minutes of exposure at room temperature, the luminescence was measured using an EnVision® plate reader (Perkin Elmer, Waltham, Mass.). The luminescent counts that were the output from the measurement were directly proportional to the ATP levels in the cells.
Replicates of each treatment group were averaged together and standard p-value calculations were used (2-sided, equal variance) to calculate significance. In cases where two treatments appeared to synergistically enhance ATP levels, the observed results were compared to the sum of the individual treatment groups to determine significance. The ATP levels measured following treatment are provided below.

[2] = system: Human dermal fibroblasts; assay: Extracellular acidification rate (ECAR) of fibroblasts after hydrogen peroxide challenge; format: cell-based
Description: The effect of a combination of a flavonoid compound, a vitamin B3 compound, and a hydrolyzed silk protein on cellular energy production was assessed by measuring the extracellular acidification rate (“ECAR”) of fibroblasts after exposure to hydrogen peroxide challenge (FIG. 2). ECAR provides an indirect measure of glycolysis. Treatment with hydrogen peroxide replicates stress induced by UV radiation or chemical pollution and decreases the ECAR. An XF Extracellular Flux Analyzer (Seahorse Bioscience, North Billerica, Mass.) was used to detect extracellular acidification rate. Human dermal fibroblasts were plated at 1×10^5 cells per well in a 96-well plate 24 hours prior to testing. The plate was loaded into the analyzer and equilibrated according to the manufacturer's instructions. Hydrogen peroxide, quercetin (Tocris Bioscience), GSS (BioSpectrum) and niacinamide were loaded into an automated injection port of the XF cartridge plate. The analyzer was programmed to sequentially run a two-minute mix cycle and a four-minute measurement cycle continuously for at least 108 minutes. Data points were collected and recorded by the analyzer. The analyzer was allowed to complete three cycles to establish a baseline value for glycolysis prior to being exposed to the peroxide solution. […]
[…] The ECAR was calculated as a percent of pre-treatment baseline. […]

[3] = 250 uM Niacinamide + 880 uM H202

| Compound | ATP [1, 3] | ATP ([1]; 0.05% Niacinamide + 800 uM H202, 90 minutes) | % Control [1, 3] [%] | % Control ([1]; 0.05% Niacinamide + 800 uM H202) [%] | ECAR as percent of pre-treatment baseline ([2]; 1.75 mM hydrogen peroxide, 3% niacinamide alone) | rate of glycolysis (ECAR) in stressed cells ([2]; 1.5 mM hydrogen peroxide, 15 uM quercetin, 90 minutes following treatment (FIG. 1)) |
| --- | --- | --- | --- | --- | --- | --- |
| NC(=O)c1cccnc1 [Niacinamide, niacinamide] | 85645 and 75045 and 80345 | 185268 | 29.5 | 43.3 | provided a protective effect and increased the ECAR | – |
| O=c1c(O)c(-c2ccc(O)c(O)c2)oc2cc(O)cc(O)c12 [Quercetin, 2-(3,4-dihydroxyphenyl)-3,5,7-trihydroxy-4H-chromen-4-one] | – | – | – | – | – | significantly increase the rate of glycolysis |
